Results taken from patent US20080063699A1, “Method of Administering Cationic Liposomes Comprising an Active Drug” (priority 2003, published 2008).
Converted amounts (≈) assume the structure as drawn. “And” between values parts separate entries of the source, which are not always exact repeats. Equal entries are not always repeated. Where two headings read alike, the source gives them in different places.

Assays:
[1] = system: Solid orthotopic L3.6pl pancreas tumor; test: Anti-tumor efficacy in combination with gemcitabine (50 mg/kg); assay type: in vivo; details: for tumor size: day 28 after tumor inoculation, after harvest
From the text: • Species: male Balb/c nu/nu mice • Tumor model: Solid orthotopic L3.6pI pancreas tumor (highly mestastatic; Bruns C J, Harbison M T, Kuniyasu H, Eue I, Fidler I J. In vivo selection and characterization of metastatic variants from human pancreatic adenocarcinoma by using orthotopic implantation in nude mice. Neoplasia 1999; 1(1):50-62.) • Supplier: Charles River France
Tumor volume palpated at day 10, 12, 14, 17, 19, 21, 24 after inoculation and at day 26, 28 after harvesting
Necrospy after harvest at day 26 and 28

[2] = system: Solid orthotopic L3.6pl pancreas tumor; test: Anti-tumor efficacy in combination with gemcitabine (100 mg/kg); details: for final tumor volume compared to the control group: day 27, Gemzar 100 mg/kg i.p., MBT-0206/paclitaxel 5 mg/kg i.v.
Procedure: Tumor size of L3.6pI pancreatic tumors 19 days after start of treatment. Treatment with 10% trehalose, paclitaxel, MBT-0206, Gemzar (gemcitabine) and the combination of both MBT-0206 and Gemzar started 8 days after tumor cell inoculation. Gemzar was applied i.p. at a dose of 100 mg/kg bw twice a week (Mon, Thu). paclitaxel and MBT-0206 were applied i.v. on a Mon, Wed, Fri schedule at a paclitaxel dose of 5 mg/kg bw. The combination group received both MBT-0206 and Gemzar with the respective schedule. Tumors were measured by palpation with a calliper on day 23 and 27. Mean±SEM; n=9 per group.
Metastases at day 19 after start of treatment. Treatment with 10% trehalose, paclitaxel, MBT-0206, Gemzar (gemcitabine) and the combination of both MBT-0206 and Gemzar started at day 8 after tumor cell inoculation. Geinzar was applied i.p. at a dose of 100 mg/kg bw twice a week (Mon, Thu). paclitaxel and MBT-0206 were applied i.v. on a Mon, Wed, Fri schedule at a paclitaxel dose of 5 mg/kg bw. The combination group received both MBT-0206 and Gemzar with the respective schedule, n=9 per group.
Tumor volume palpated at day 23, 26 after inoculation and after harvesting
Necrospy after harvest at day 27

[3] = system: highly drug-resistant uterus sarcoma line Mes-SA/Dx-5MBT; test: Growth inhibitory assay (MTT, 72 h); assay type: cell-based, human; details: for IC50: Homo sapiens, MES-SA
Procedure: (§1) FIG. 3-5: The growth inhibitory assay was performed in 24-well plates with each drug concentration tested in duplicate (n=2 wells). 4×10^4 cells per well were seeded into a 24-well plate and incubated over night. The following day, 10-11 concentrations of the respective drug formulation were added for 72 h to cover the range depicted in the respective graphs. Finally, the cell viability was determined by a standard MTT-assay measuring the activity of mitochondrial-dehydrogenases.
as §1, with “The” for “FIG. 3-5: The”, “mitochondrial dehydrogenases.” for “mitochondrial-dehydrogenases.”
These cell lines were selected by stepwise increasing the concentration of paclitaxel in the culture medium.
(§2) The highly paclitaxel resistant derivative cell line Mes-SA/Dx-5MBT was selected with increasing paclitaxel concentrations from the commercially available line Mes-SA/Dx-5 (ATCC, {Harker, 1986 #29}).

[4] = system: moderatly drug-resistant uterus sarcoma line Mes-SA/Dx-5; test: Growth inhibitory assay (MTT, 72 h); assay type: cell-based, human
Procedure: as §1, §2

[5] = system: drug-sensitive human uterus sarcoma line Mes-SA; test: Growth inhibitory assay (MTT, 72 h); assay type: cell-based; details: FIG. 5
Procedure: as §1
as §1, with “The” for “FIG. 3-5: The”, “mitochondrial dehydrogenases.” for “mitochondrial-dehydrogenases.”
as §2

[6] = system: highly drug-resistant murine colon carcinoma line Colon-26MBT; test: Growth inhibitory assay (MTT, 72 h); assay type: cell-based; details: Mus musculus
Procedure: as §1, with “6-7:” for “3-5:”, “mitochondrial dehydrogenases.” for “mitochondrial-dehydrogenases.”

[7] = system: parental drug-sensitive murine colon carcinoma line Colon-26; test: Growth inhibitory assay (MTT, 72 h); assay type: cell-based; details: FIG. 7
Procedure: as §1, with “6-7:” for “3-5:”, “mitochondrial dehydrogenases.” for “mitochondrial-dehydrogenases.”

[8] = system: drug-resistant human dermal melanoma line Sk-Mel28; test: Growth inhibitory assay (MTT, 72 h); assay type: cell-based; details: SK-MEL-28, FIG. 10
Procedure: as §1, with “10: Inhibitory Potential of paclitaxel against the drug-resistant human dermal melanoma line Sk-Mel28.” for “3-5:”, “11” for “10-11”, “mitochondrial dehydrogenases.” for “mitochondrial-dehydrogenases.”
(§3) 2. […] In vivo, these cells were injected into SCID mice bearing human skin transplants between human skin transplant and mouse acceptor skin. Treatments were started on day 17 after tumor cell injection and extended to day 28 with doses (12.5 mg/kg b.w.) every second day. The therapeutic potential of MBT-0206 and paclitaxel were compared on day 7 after start of treatments (see table below). […] Upon treatment with MBT-0206, tumors only marginally grew to about 1/10 the size of paclitaxel (paclitaxel)-treated tumors.

[9] = system: Sk-Mel28 tumor; test: Paclitaxel-resistant melanoma model with human skin transplants in vivo; parameters: species or system SCID mice; details: 12.5 mg/kg b.w. every second day
Procedure: as §3
Mes-SA/Dx-5MBT tumor model: tumor volumes on day 23 after start of treatment (9 treatments, i.e. 3 per week, from day 12 to day 31 after tumor cell injection) Sk-Mel tumor model: tumor volumes on day 7 after start of treatment (6 treatments very other day, i.e. from day 17 to day 28 after tumor cell injection).

Row | SMILES | tumor size [1] | mortality at day 24 ([1]; n=9 per group, MBT-0206 5 mg/kg i.v., Gemzar 50 mg/kg i.p.) | final tumor volume compared to the control group [2] | weight loss (body weight) ([2]; during the last 11 days) | IC50 (50% growth inhibition) ([3]; 72 h, MTT) | fold increased paclitaxel tolerance compared to the parental line Mes-SA (by IC50 values) ([3]; FIG. 9) | IC50 ([3]; 72 h, MTT, read-out: IC50) | IC50 ([3]; 72 h, MTT, read-out: IC50 (50% growth inhibition)) | fold lower IC50 value than in Mes-SA/Dx-5MBT [4] | IC50 [5] | IC50 ([6]; FIG. 6, read-out: IC50) | IC50 ([6]; read-out: IC50 (50% growth inhibition)) | sensitivity of the line for MBT-0206 and paclitaxel [7] | IC50 [8] | effect on tumor development [9]
1 | Nc1ccn([C@@H]2O[C@H](CO)[C@@H](O)C2(F)F)c(=O)n1 [Gemzar, gemcitabine] | 398 mm^3 | 1 animals dead | 47% | – | – | – | – | – | – | – | – | – | – | – | –
2 | CC(=O)O[C@H]1C(=O)[C@@]2(C)[C@H]([C@H](OC(=O)c3ccccc3)[C@]3(O)C[C@H](OC(=O)[C@H](O)[C@@H](NC(=O)c4ccccc4)c4ccccc4)C(C)=C1C3(C)C)[C@]1(OC(C)=O)CO[C@@H]1C[C@@H]2O [paclitaxel] | 536 mm^3 | – | 68% | 2% | 0.867 µg/mL (≈ 1.02 µM) | ~150 fold | 0.87 µg/mL (≈ 1.02 µM) | ~1 µM and ~0.867 µg/mL | approximately 7 fold | 0.0055 µg/mL (≈ 0.00644 µM) | ~5 µg/mL (≈ 5.86 µM) | ~5 µM and ~5 µg/mL | equally sensitive | 5.8 µg/mL (≈ 6.79 µM) | completely ineffective
